Patent publication US20260125647A1, “AGE-MODULATING COMPOUNDS AND METHODS FOR MAKING AGE-MODULATED CELLS” (MEMORIAL SLOAN-KETTERING CANCER CENTER, priority 2023, published 2026)

Experiments:
HDF fibroblasts = assay: Hallmarks of age by high content microscopy in fibroblasts; type: cell-based, human; conditions: 24 h
Procedure: Compounds for experimental validation of L1000-based score. All validation experiments were performed after 24 h of compound treatment. For rejuvenation experiments in fibroblasts Mocetinostat (10 μM; Selleck S1396), Resveratrol (0.37 μM; Selleck S1396) and Radicicol (1.1 μM; Tocris 1589), DMSO (1:1000) and EtOH (1:1000; vehicle control for Radicicol) were applied to old primary fibroblasts (Coriell GM4204). Age induction experiments in young fibroblasts (HDF-f; ScienCell #2300) were performed with 5-Iodotubercin (10 μM; Selleck S8314), Alvocidib (10 μM; Selleck S1230) and Mitoxantrone (1.1 μM; Selleck S2485) with DMSO (1:1000) used as a control. Compounds used for age induction experiments in PSC-derived neurons were: Fludarabine (10 μM; Selleck S1491) Vinorelbine (10 μM; sc-205885) and AGK-2 (0.04 μM; Selleck S7577) with DMSO (1:1000) used as a control.
Assaying Hallmarks of Age by high content microscopy. HDF fibroblasts were plated at a density of 4500/cm^2 and cultured for 48 h before drug treatment. Neurons were plated at a density of 100,000/cm^2 and cultured for 12 days before the application of candidate age inducers. After 24 h of treatment culture wells were washed 2× in PBS then fixed with 4% paraformaldehyde. For immunocytochemistry cells were permeabilized in PBS+0.3% Triton and blocked in 5% normal goat serum. All antibody primary incubations were performed overnight at 4 degrees and secondary antibodies at RT for 1h. Primary antibodies used in this study were: BAG3 (abcam; ab47124), CAV1 (Thermo; MA3-600), H3K9me3 (abcam; ab176916), LAP2 (BD Bioscience; 611000), p21 (CST; 2947), yH2AX (EMD Millipore; 05-636). Immunocytochemistry images were acquired using an Operetta (PerkinElmer, Waltham, MA) microscope and quantified using the harmony high content analysis software. For both fibroblasts and neurons 4 independent batches of cells were assayed in triplicate (n=12). Fluorescence intensity was normalized to DMSO, and ordinary one-way ANOVA used to compare test conditions to the DMSO control (Prism 9.5.1). […]

[1] = test system: fetal human dermal fibroblasts (HDF-f); assay: RNA-seq RNAge validation of age inducers in fetal fibroblasts; type: cell-based; conditions: 24 h, relative to DMSO; for RNAge score (relative transcriptional age): Alvocidib 10 μM, 5-Iodotubercin 10 μM, Mitoxantrone 1.1 μM
Procedure: Fibroblast maintenance and culture. Fibroblasts were maintained in DMEM-F12 containing GlutaMAX,15% heat inactivated FBS and 1× Pen/Strep and passaged using Trypsin. For validation of […] aging score by RNA-seq old (GM04204; Coriell) or young (HDF-f; […] Compounds for experimental validation of […]-based score. All validation experiments were performed after 24 h of compound treatment. For rejuvenation experiments in fibroblasts Mocetinostat (10 μM; Selleck […]), Resveratrol (0.37 μM; Selleck […]) and Radicicol (1.1 μM; Tocris 1589), DMSO (1:1000) and EtOH (1:1000; vehicle control for Radicicol) were applied to old primary fibroblasts (Coriell GM4204). Age induction experiments in young fibroblasts (HDF-f; ScienCell #2300) were performed with 5-Iodotubercin (10 μM; Selleck […]), Alvocidib (10 μM; Selleck […]) and Mitoxantrone (1.1 μM; Selleck […]) with DMSO (1:1000) used as a control. Compounds used for age induction experiments in PSC-derived neurons were: […] Selleck […]) with DMSO (1:1000) used as a control. RNA Extraction. Cell were harvested, lysed, and stored in Trizol (Life Technologies) until further processing. For primary frontal cortex or substantia nigra a total of 10 mg of brain tissue from was lysed in Trizol aided by a tissue dounce. For experimental validation […] compounds RNA was extracted by the core using […] Micro Kit (QIAGEN 1071023). In all other cases RNA was extracted using the Zymo Direct-zol RNA Microprep Kit according to the manufacturer's instructions. RNA-seq analysis. Reads were aligned to the hg19 Human transcripts using STAR (version 2.5.21b) using default parameters and resulting bam files were sorted and indexed using samtools. Gene counts were obtained using featureCounts (version 1.4.3) from sorted bam files using uniquely mapped reads. Genes with no expression counts in any sample were discarded. Differential gene expression analysis was performed using DESeq2 R package that normalize gene count data to transcription per million (TPM), and then detect differentially expressed genes (DEG) between Young and Old groups with ([…] score calculation. The aging score is applied on a gene expression test data where two conditions are compared for expression changes in the aging signature, group1 has n samples and group2 has m samples. For each gene in a tissue specific marker set Ĝk, we can calculate t-statistic between two groups based on Welch's two-sample t test as follow: where the normalizing factor Nk is the number of overlapping genes between the test dataset and Ĝk. The aging score, Aging scorek, represents the overall magnitude of expression difference between two sample groups based on the expression trends. This score is calculated using the tissue-specific aging marker set Mk. It indicates the aging difference between the two groups as well as distinguishes which group is older. To mitigate the influence of a small number of markers with large changes gene expression between group1 and group2 of the test data (i.e. large t-score values), we introduced the “Percentage score” as a measure of agreement between the expression trends of the aging markers and the given dataset. The calculation of the Percentage score involves the product of each gene between Tk and Mk: Ai=ti×Li, where i∈Ĝk. A positive Ai indicates a consistent expression change of gene i in both the aging signature and in the comparison between group1 and group2 in the test dataset. Conversely, a negative Ai indicates an opposite expression trend. Therefore, the “Percentage score” is defined as: […]

PSC-derived neurons = assay: RNA-seq RNAge validation of age inducers in PSC-derived neurons; type: cell-based, human; conditions: 24 h, relative to DMSO, Vinorelbine 10 μM, AGK-2 0.04 μM
Procedure: Generation of human cortical neurons. Cortical neurons were generated by directed differentiation of human embryonic stem cells (H9; WA-09) maintained in E8 on vitronectin coated plates. […] After 24 h the E8 medium was replaced with E6 containing SB431542 (10 μM), LDN193189 (100 nM) and XAV939 ([…]). After three days the XAV939 was removed from the differentiation media and cells were cultured for an additional seven days in E6 containing SB431542 (10 μM), LDN193189 (100 nM). The neuroepithelium was maintained for an additional 10 days in neurobasal supplemented with N2 and B27. Media was changed daily throughout the differentiation. At DIV 20 the cultures were dissociated using Accutase to generate a single cell suspension and plated out for subsequent experiments in Neurobasal medium supplemented with B27, L-glutamine, BDNF, CAMP, ascorbic acid and GDNF (neural maintenance media). DAPT was also added to the culture medium from DIV20 to DIV30. Compounds for experimental validation of […]-based score. […] Reads were aligned to the hg19 Human transcripts using STAR (version 2.5.21b) using default parameters and resulting bam files were sorted and indexed using samtools. Gene counts were obtained using featureCounts (version 1.4.3) from sorted bam files using uniquely mapped reads. […] This score is calculated using the tissue-specific aging marker set Mk. […]

[2] = test system: old primary fibroblasts (Coriell GM04204); assay: RNA-seq RNAge validation of rejuvenating compounds in old primary fibroblasts; type: cell-based, human; conditions: 0.37 μM, 24 h
Procedure: Fibroblast maintenance and culture. Fibroblasts were maintained in DMEM-F12 containing GlutaMAX,15% heat inactivated FBS and 1× Pen/Strep and passaged using Trypsin. For validation of […] aging score by RNA-seq old (GM04204; Coriell) or young (HDF-f; […] Compounds for experimental validation of […]-based score. All validation experiments were performed after 24 h of compound treatment. For rejuvenation experiments in fibroblasts Mocetinostat (10 μM; Selleck […]), Resveratrol (0.37 μM; Selleck […]) and Radicicol (1.1 μM; Tocris 1589), DMSO (1:1000) and EtOH (1:1000; vehicle control for Radicicol) were applied to old primary fibroblasts (Coriell GM4204). Age induction experiments in young fibroblasts (HDF-f; ScienCell #2300) were performed with 5-Iodotubercin (10 μM; Selleck […]), Alvocidib (10 μM; Selleck […]) and Mitoxantrone (1.1 μM; Selleck […]) with DMSO (1:1000) used as a control. Compounds used for age induction experiments in PSC-derived neurons were: […] Selleck […]) with DMSO (1:1000) used as a control. RNA Extraction. […] Reads were aligned to the hg19 Human transcripts using STAR (version 2.5.21b) using default parameters and resulting bam files were sorted and indexed using samtools. Gene counts were obtained using featureCounts (version 1.4.3) from sorted bam files using uniquely mapped reads. […] This score is calculated using the tissue-specific aging marker set Mk. […]

SMILES | nuclear area (HDF fibroblasts) | nuclear roundness (HDF fibroblasts) | BAG3 fluorescence intensity (HDF fibroblasts; relative to DMSO) | LAP2 fluorescence intensity (HDF fibroblasts; relative to DMSO) | pattern of induction of the RNAge subscores [1] | RNAge score (relative transcriptional age) [1] | RNAge score / aging scores across the aging signatures (PSC-derived neurons) | further results
Nc1ncnc2c1c(I)cn2[C@@H]1O[C@H](CO)[C@@H](O)[C@H]1O [5-iodotubercin] | increase | loss | decreased | loss | very similar pattern of induction | increased | – | –
N#C/C(=C\c1ccc(-c2cc(Cl)ccc2Cl)o1)C(=O)Nc1cccc2ncccc12 [AGK-2] | – | – | – | – | – | – | no obvious transcriptional effect or impact | –
CN1CC[C@H](c2c(O)cc(O)c3c(=O)cc(-c4ccccc4Cl)oc23)[C@H](O)C1 [Alvocidib] | increase | loss | decreased | loss | very similar pattern of induction | increased | – | –
O=C1c2c(O)ccc(O)c2C(=O)c2c(NCCNCCO)ccc(NCCNCCO)c21 [Mitoxantrone] | – | loss | decreased | loss | only showed induced aging in the ‘Pan’ and ‘pF’ aging categories | increased | – | H3K9me3 immunoreactivity (HDF fibroblasts; relative to DMSO): decreased; p21 immunoreactivity (HDF fibroblasts; relative to DMSO): increased; γH2AX immunoreactivity (HDF fibroblasts; relative to DMSO): increased
Oc1ccc(C=Cc2cc(O)cc(O)c2)cc1 [Resveratrol] | – | – | – | – | – | – | – | fibroblast aging score bubble size (percent of genes that change in the expected direction) [2]: very small bubble size
CCC1=C[C@@H]2CN(C1)Cc1c([nH]c3ccccc13)[C@@](C(=O)OC)(c1cc3c(cc1OC)N(C)[C@H]1[C@@](O)(C(=O)OC)[C@H](OC(C)=O)[C@]4(CC)C=CCN5CC[C@]31[C@@H]54)C2 [Vinorelbine] | – | – | – | – | – | – | only a slight, albeit consistent, induction | –
